The source of these data is BindingDB's records for doi:10.1021/jm950369c (University of Arizona, 1996).

This assay can be described thus: Inhibition of [3H]c[D-Pen2,p-Cl-Phe4,D-Pen5]enkephalin binding to delta opioid receptor of guinea pig brain plasma membrane homogenates.

In turn, `CC[C@H](C)[C@H](NC(=O)[C@H](CCCNC(=N)N)NC(=O)[C@@H]1CCCCNC(=O)C[C@H](NC(=O)[C@@H](N)Cc2ccc(O)cc2)C(=O)NCC(=O)N[C@@H](Cc2ccccc2)C(=O)N[C@@H](CC(C)C)C(=O)N1)C(=O)N[C@@H](CCCNC(=N)N)C(=O)N1CCC[C@H]1C(=O)N[C@@H](CCCCN)C(N)=O` [Cyclic Lactam Peptide Analogues of Dynorphin A(1-11)-NH2Cyclic Lactam Peptide Analogues of Dynorphin A(1-11)-NH2] gave a half-inhibitory concentration (IC50) of 12 nM.

With `CC[C@H](C)[C@H](NC(=O)[C@H](CCCCN)NC(=O)[C@H](CCCNC(=N)N)NC(=O)[C@H](CC(C)C)NC(=O)[C@H](Cc1ccccc1)NC(=O)[C@@H](CC(=O)O)NC(=O)CNC(=O)[C@@H](N)Cc1ccc(O)cc1)C(=O)N[C@@H](CCCNC(=N)N)C(=O)N1CCC[C@H]1C(=O)N[C@@H](CCCCN)C(N)=O` [Cyclic Lactam Peptide Analogues of Dynorphin A(1-11)-NH2], the half-inhibitory concentration (IC50) worked out at 870 nM.

Take `CC[C@H](C)[C@H](NC(=O)[C@H](CCCNC(=N)N)NC(=O)[C@@H]1CCCCNC(=O)C[C@@H](NC(=O)[C@@H](N)Cc2ccc(O)cc2)C(=O)NCC(=O)N[C@@H](Cc2ccccc2)C(=O)N[C@@H](CC(C)C)C(=O)N1)C(=O)N[C@@H](CCCNC(=N)N)C(=O)N1CCC[C@H]1C(=O)N[C@@H](CCCCN)C(N)=O` [Cyclic Lactam Peptide Analogues of Dynorphin A(1-11)-NH2]: the IC50 stood at 910 nM.

For orientation: IC50 means the concentration that gives 50% inhibition. Low values mean greater potency in that assay, high ones weaker potency in that assay.
